Measured values as given in article PMC8800111 (The Journal of Biological Chemistry, 2021).

Columns and labels:
Format in all cases: cell-based
[1] = molecular target: proteins of U3A human fibrosarcoma cells (4462 proteins detected) (Homo sapiens, UniProt O00567); settings: protein NOP56; U3A cells
[2] = molecular target: proteins of U3A human fibrosarcoma cells (4462 proteins detected) (Homo sapiens, UniProt O14976); settings: protein GAK; U3A, 10 μM, 2 h
[3] = molecular target: proteins of U3A human fibrosarcoma cells (4462 proteins detected) (Homo sapiens, UniProt O75449); settings: protein KATNA1; U3A cells
[4] = molecular target: proteins of U3A human fibrosarcoma cells (4462 proteins detected) (Homo sapiens, UniProt O94925); settings: protein GLS; U3A, 10 μM, 2 h
[5] = molecular target: proteins of U3A human fibrosarcoma cells (4462 proteins detected) (Homo sapiens, UniProt P15586); settings: protein GNS, U3A cells
[6] = molecular target: proteins of U3A human fibrosarcoma cells (4462 proteins detected) (Homo sapiens, UniProt P28290); settings: protein SSFA2; U3A, 10 μM, 2 h
[7] = molecular target: proteins of U3A human fibrosarcoma cells (4462 proteins detected) (Homo sapiens, UniProt P50542); settings: protein PEX5, U3A cells
[8] = molecular target: proteins of U3A human fibrosarcoma cells (4462 proteins detected) (Homo sapiens, UniProt P54886); settings: protein ALDH18A1; U3A cells
[9] = molecular target: proteins of U3A human fibrosarcoma cells (4462 proteins detected) (Homo sapiens, UniProt P56277); settings: protein CMC4; U3A, 10 μM, 2 h
[10] = molecular target: proteins of U3A human fibrosarcoma cells (4462 proteins detected) (Homo sapiens, UniProt Q12765); settings: protein SCRN1, U3A cells
[11] = molecular target: proteins of U3A human fibrosarcoma cells (4462 proteins detected) (Homo sapiens, UniProt Q13641); settings: protein TPBG; soluble abundance after heat, U3A cells
[12] = molecular target: proteins of U3A human fibrosarcoma cells (4462 proteins detected) (Homo sapiens, UniProt Q14839); settings: protein CHD4; soluble abundance after heat, U3A cells
[13] = molecular target: proteins of U3A human fibrosarcoma cells (4462 proteins detected) (Homo sapiens, UniProt Q16658); settings: protein FSCN1, U3A cells
[14] = molecular target: proteins of U3A human fibrosarcoma cells (4462 proteins detected) (Homo sapiens, UniProt Q16740); settings: protein CLPP; soluble abundance after heat, U3A cells
[15] = molecular target: proteins of U3A human fibrosarcoma cells (4462 proteins detected) (Homo sapiens, UniProt Q495W5); settings: protein FUT11; U3A cells
[16] = molecular target: proteins of U3A human fibrosarcoma cells (4462 proteins detected) (Homo sapiens, UniProt Q4J6C6); settings: protein PREPL, U3A cells
[17] = molecular target: proteins of U3A human fibrosarcoma cells (4462 proteins detected) (Homo sapiens, UniProt Q68CP9); settings: protein ARID2; U3A cells
[18] = molecular target: proteins of U3A human fibrosarcoma cells (4462 proteins detected) (Homo sapiens, UniProt Q6P2Q9); settings: protein PRPF8; soluble abundance after heat, U3A cells
[19] = molecular target: proteins of U3A human fibrosarcoma cells (4462 proteins detected) (Homo sapiens, UniProt Q8IYB8); settings: protein SUPV3L1; U3A cells
[20] = molecular target: proteins of U3A human fibrosarcoma cells (4462 proteins detected) (Homo sapiens, UniProt Q8TBZ3); settings: protein WDR20, U3A cells
[21] = molecular target: proteins of U3A human fibrosarcoma cells (4462 proteins detected) (Homo sapiens, UniProt Q92575); settings: protein UBXN4; U3A cells
[22] = molecular target: proteins of U3A human fibrosarcoma cells (4462 proteins detected) (Homo sapiens, UniProt Q9C0C9); settings: protein UBE2O; soluble abundance after heat, U3A cells
[23] = molecular target: proteins of U3A human fibrosarcoma cells (4462 proteins detected) (Homo sapiens, UniProt Q9H3H3); settings: protein C11orf68; soluble abundance after heat, U3A cells
[24] = molecular target: proteins of U3A human fibrosarcoma cells (4462 proteins detected) (Homo sapiens, UniProt Q9NRN7); settings: protein AASDHPPT; U3A cells
[25] = molecular target: proteins of U3A human fibrosarcoma cells (4462 proteins detected) (Homo sapiens, UniProt Q9NRY5); settings: protein FAM114A2; U3A cells
[26] = molecular target: proteins of U3A human fibrosarcoma cells (4462 proteins detected) (Homo sapiens, UniProt Q9NS69); settings: protein TOMM22; soluble abundance after heat, U3A cells
[27] = molecular target: proteins of U3A human fibrosarcoma cells (4462 proteins detected) (Homo sapiens, UniProt Q9NT62); settings: protein ATG3; soluble abundance after heat, U3A cells
[28] = molecular target: proteins of U3A human fibrosarcoma cells (4462 proteins detected) (Homo sapiens, UniProt Q9NXV2); settings: protein KCTD5, U3A cells
[29] = molecular target: proteins of U3A human fibrosarcoma cells (4462 proteins detected) (Homo sapiens, UniProt Q9UK41); settings: protein VPS28; U3A cells
[30] = molecular target: proteins of U3A human fibrosarcoma cells (4462 proteins detected) (Homo sapiens, UniProt Q9Y6G5); settings: protein COMMD10; U3A cells

proteins of U3A human fibrosarcoma cells (4462 proteins detected) (Homo sapiens, UniProt O00567), sequence (O00567 whole entry): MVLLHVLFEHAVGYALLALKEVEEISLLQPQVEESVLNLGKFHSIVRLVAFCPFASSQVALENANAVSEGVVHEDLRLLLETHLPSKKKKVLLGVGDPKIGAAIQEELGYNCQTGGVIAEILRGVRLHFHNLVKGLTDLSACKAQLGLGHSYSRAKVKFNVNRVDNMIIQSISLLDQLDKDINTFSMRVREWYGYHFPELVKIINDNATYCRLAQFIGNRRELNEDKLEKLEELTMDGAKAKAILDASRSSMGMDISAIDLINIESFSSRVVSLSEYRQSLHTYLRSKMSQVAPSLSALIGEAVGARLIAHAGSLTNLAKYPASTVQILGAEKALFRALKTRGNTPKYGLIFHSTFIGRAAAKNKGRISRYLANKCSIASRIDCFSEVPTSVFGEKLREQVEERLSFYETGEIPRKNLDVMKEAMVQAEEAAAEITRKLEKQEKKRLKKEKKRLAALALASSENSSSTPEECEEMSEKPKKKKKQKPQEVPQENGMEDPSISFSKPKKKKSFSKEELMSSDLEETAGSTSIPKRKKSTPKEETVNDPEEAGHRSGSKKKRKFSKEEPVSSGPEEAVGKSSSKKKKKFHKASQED
proteins of U3A human fibrosarcoma cells (4462 proteins detected) (Homo sapiens, UniProt P56277), sequence (P56277 whole entry): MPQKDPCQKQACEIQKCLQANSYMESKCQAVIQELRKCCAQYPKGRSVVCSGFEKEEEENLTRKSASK
proteins of U3A human fibrosarcoma cells (4462 proteins detected) (Homo sapiens, UniProt Q8IYB8), sequence (Q8IYB8 23-786): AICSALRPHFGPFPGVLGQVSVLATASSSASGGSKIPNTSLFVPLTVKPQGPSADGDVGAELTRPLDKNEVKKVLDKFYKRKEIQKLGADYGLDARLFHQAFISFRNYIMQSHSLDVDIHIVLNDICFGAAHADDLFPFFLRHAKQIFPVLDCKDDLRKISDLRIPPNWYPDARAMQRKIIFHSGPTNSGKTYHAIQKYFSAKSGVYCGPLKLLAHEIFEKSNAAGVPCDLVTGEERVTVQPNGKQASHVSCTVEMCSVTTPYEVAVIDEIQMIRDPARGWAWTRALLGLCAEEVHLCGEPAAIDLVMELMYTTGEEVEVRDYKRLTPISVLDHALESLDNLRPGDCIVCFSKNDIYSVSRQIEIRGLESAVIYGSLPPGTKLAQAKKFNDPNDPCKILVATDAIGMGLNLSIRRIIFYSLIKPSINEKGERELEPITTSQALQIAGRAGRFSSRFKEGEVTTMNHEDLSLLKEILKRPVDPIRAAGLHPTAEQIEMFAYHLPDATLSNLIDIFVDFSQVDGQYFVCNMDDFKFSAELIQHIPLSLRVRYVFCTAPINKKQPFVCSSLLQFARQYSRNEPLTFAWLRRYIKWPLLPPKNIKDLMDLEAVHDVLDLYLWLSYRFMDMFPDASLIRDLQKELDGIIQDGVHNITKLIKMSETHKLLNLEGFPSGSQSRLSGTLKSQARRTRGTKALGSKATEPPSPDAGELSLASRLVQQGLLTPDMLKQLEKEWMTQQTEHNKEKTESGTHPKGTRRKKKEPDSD
proteins of U3A human fibrosarcoma cells (4462 proteins detected) (Homo sapiens, UniProt Q9NT62), sequence (Q9NT62 whole entry): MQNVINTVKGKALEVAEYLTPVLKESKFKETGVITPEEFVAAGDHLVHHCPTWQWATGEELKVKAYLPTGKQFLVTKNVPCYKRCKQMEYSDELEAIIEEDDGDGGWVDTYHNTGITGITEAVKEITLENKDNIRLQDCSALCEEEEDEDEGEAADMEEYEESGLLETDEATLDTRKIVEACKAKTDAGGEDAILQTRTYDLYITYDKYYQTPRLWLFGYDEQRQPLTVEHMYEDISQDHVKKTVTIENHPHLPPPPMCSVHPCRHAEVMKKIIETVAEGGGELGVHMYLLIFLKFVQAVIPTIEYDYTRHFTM
proteins of U3A human fibrosarcoma cells (4462 proteins detected) (Homo sapiens, UniProt Q14839), sequence (Q14839 whole entry): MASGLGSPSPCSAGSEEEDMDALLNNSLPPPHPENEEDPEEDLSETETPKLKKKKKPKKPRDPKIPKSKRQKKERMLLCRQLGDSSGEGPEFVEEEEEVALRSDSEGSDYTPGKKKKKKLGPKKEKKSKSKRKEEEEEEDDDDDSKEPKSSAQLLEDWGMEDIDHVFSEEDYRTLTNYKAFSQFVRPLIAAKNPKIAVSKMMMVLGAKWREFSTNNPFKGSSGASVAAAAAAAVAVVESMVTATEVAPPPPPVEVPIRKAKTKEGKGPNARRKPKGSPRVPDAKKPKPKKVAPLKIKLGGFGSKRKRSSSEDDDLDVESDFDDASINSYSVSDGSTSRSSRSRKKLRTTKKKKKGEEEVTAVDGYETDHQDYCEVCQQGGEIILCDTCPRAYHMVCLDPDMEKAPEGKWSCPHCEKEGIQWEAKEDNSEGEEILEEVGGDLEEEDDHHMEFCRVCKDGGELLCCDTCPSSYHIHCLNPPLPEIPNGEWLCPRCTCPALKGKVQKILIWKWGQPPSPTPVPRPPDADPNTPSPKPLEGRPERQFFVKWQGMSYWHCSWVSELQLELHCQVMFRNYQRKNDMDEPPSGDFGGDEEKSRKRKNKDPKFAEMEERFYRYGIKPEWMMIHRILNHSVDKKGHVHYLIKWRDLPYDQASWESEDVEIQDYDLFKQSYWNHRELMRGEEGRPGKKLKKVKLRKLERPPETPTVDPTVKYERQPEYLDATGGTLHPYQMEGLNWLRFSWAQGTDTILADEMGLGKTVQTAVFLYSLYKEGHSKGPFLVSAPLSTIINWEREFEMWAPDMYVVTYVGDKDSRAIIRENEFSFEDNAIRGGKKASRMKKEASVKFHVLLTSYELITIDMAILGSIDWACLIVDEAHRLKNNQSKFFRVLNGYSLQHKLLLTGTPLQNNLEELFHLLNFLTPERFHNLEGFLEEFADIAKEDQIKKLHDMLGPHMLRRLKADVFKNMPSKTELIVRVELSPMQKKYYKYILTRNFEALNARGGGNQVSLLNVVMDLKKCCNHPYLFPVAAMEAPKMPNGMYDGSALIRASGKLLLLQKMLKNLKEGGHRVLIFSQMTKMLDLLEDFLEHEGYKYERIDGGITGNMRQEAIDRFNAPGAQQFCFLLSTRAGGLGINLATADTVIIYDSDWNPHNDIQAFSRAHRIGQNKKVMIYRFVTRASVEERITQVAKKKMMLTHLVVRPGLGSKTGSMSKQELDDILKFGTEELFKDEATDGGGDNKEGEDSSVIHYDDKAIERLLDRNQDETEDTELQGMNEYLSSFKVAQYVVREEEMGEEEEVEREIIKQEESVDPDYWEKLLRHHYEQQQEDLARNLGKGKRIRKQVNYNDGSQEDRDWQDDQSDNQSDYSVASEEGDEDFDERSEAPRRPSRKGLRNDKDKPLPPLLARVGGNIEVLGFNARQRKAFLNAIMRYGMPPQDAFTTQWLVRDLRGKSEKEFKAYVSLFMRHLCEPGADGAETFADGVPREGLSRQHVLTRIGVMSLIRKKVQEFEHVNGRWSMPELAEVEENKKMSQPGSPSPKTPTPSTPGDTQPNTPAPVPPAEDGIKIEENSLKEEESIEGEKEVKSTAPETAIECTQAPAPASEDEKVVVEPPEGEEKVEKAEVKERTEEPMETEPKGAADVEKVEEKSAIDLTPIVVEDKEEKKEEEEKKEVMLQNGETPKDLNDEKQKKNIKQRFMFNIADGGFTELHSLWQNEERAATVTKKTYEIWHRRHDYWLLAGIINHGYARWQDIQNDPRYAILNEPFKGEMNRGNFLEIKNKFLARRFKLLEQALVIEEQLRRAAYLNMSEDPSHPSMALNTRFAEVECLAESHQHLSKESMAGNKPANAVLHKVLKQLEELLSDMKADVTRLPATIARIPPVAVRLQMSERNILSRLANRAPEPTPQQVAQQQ
proteins of U3A human fibrosarcoma cells (4462 proteins detected) (Homo sapiens, UniProt Q16740), sequence (Q16740 57-277): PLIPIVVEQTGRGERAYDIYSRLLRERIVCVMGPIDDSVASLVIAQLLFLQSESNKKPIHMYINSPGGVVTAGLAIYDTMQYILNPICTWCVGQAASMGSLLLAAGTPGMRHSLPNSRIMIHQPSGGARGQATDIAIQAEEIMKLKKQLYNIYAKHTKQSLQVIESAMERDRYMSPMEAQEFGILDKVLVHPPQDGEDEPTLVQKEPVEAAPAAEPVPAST
proteins of U3A human fibrosarcoma cells (4462 proteins detected) (Homo sapiens, UniProt Q9NRY5), sequence (Q9NRY5 whole entry): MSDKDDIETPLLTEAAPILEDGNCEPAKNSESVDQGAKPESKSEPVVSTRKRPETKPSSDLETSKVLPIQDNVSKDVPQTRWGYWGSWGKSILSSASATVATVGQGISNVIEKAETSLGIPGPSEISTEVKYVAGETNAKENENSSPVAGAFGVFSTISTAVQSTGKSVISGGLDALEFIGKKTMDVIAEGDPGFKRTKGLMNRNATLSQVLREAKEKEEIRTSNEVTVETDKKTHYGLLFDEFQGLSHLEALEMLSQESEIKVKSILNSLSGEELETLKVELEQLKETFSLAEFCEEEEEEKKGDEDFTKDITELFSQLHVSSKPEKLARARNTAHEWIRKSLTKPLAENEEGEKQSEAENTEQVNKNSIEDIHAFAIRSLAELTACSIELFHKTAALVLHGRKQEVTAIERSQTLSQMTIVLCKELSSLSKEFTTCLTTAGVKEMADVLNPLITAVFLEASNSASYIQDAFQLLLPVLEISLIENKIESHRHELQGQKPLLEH
proteins of U3A human fibrosarcoma cells (4462 proteins detected) (Homo sapiens, UniProt Q495W5), sequence (Q495W5 whole entry): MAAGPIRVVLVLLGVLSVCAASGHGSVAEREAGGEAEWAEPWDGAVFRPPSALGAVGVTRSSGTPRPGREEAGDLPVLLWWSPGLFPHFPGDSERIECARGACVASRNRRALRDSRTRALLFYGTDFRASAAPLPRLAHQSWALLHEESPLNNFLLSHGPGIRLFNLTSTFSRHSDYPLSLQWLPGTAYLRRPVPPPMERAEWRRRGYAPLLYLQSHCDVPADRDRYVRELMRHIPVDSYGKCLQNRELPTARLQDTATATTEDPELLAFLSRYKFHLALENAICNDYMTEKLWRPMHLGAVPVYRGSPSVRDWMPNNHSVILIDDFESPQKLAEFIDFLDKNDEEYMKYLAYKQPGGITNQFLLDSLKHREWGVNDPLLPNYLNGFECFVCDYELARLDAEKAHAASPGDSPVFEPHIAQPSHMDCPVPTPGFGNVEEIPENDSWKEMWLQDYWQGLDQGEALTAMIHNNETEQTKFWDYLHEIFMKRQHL
proteins of U3A human fibrosarcoma cells (4462 proteins detected) (Homo sapiens, UniProt Q9NS69), sequence (Q9NS69 whole entry): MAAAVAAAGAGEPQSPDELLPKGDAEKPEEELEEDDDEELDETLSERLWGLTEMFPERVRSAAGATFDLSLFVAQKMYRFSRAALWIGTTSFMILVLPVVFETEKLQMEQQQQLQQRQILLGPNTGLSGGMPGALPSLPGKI

Compound: CCc1nc(N)nc(N)c1-c1ccc(Cl)cc1 [pyrimethamine]
- Log2 (PYR/DMSO) [1]: 0.21
- Log2 (PYR/DMSO), GAK [2]: -0.20
- Log2 (PYR/DMSO) [3]: 0.18
- Log2 (PYR/DMSO), GLS [4]: 0.24
- Log2 (PYR/DMSO) [5]: -0.04
- Log2 (PYR/DMSO), SSFA2 [6]: -0.15
- Log2 (PYR/DMSO) [7]: -0.03
- Log2 (PYR/DMSO) [8]: 0.17
- Log2 (PYR/DMSO), CMC4 [9]: 0.24
- Log2 (PYR/DMSO) [10]: -0.04
- Log2 (PYR/DMSO) [11]: 0.14
- Log2 (PYR/DMSO) [12]: 0.14
- Log2 (PYR/DMSO) [13]: -0.04
- Log2 (PYR/DMSO) [14]: 0.14
- Log2 (PYR/DMSO) [15]: 0.17
- Log2 (PYR/DMSO) [16]: -0.04
- Log2 (PYR/DMSO) [17]: 0.18
- Log2 (PYR/DMSO) [18]: 0.14
- Log2 (PYR/DMSO) [19]: 0.19
- Log2 (PYR/DMSO) [20]: -0.04
- Log2 (PYR/DMSO) [21]: 0.18
- Log2 (PYR/DMSO) [22]: 0.14
- Log2 (PYR/DMSO) [23]: 0.14
- Log2 (PYR/DMSO) [24]: 0.17
- Log2 (PYR/DMSO) [25]: 0.17
- Log2 (PYR/DMSO) [26]: 0.14
- Log2 (PYR/DMSO) [27]: 0.13
- Log2 (PYR/DMSO) [28]: -0.04
- Log2 (PYR/DMSO) [29]: 0.21
- Log2 (PYR/DMSO) [30]: 0.22
